Measured values: PMC9856672, “SGC-CAMKK2-1: A Chemical Probe for CAMKK2” (Cells, 2023)

Assays:
EGFR(G719C) = biological target: T1, EGFR(G719C) (Homo sapiens, UniProt P00533, G719C); assay: KINOMEscan 1 μM, EGFR(G719C); assay type: binding; details: 1000 nM; Entrez EGFR; read-out: Percent Control
T1 construct: purchased Eurofins DiscoverX KINOMEscan
Text: (§1) Supplement cells-12-00287-s001.zip/File S2. KinomeScan data for the CAMKK2 probe and negative control.xlsx, sheet "SGC-CAMKK2-1" | column: Percent Control

CDK3 [1] = biological target: T2, CDK3 (Homo sapiens, UniProt Q00526); assay: KINOMEscan 1 μM, CDK3; assay type: binding; details: 1000 nM; Entrez CDK3; read-out: Percent Control
T2 construct: purchased Eurofins DiscoverX KINOMEscan
T2 sequence (Q00526 whole entry): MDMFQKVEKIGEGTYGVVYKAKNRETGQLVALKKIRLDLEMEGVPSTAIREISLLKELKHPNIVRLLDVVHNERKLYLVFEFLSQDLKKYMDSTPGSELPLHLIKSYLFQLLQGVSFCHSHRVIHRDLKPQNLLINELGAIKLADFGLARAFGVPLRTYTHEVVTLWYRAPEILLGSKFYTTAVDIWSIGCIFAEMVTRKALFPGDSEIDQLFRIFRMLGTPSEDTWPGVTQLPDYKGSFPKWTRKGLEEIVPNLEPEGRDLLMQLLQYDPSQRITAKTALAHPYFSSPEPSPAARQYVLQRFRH
Text: as §1

ULK1 = biological target: T3, ULK1 (Homo sapiens, UniProt O75385); assay: KINOMEscan 1 μM, ULK1; assay type: binding; details: 1000 nM; Entrez ULK1; read-out: Percent Control
T3 construct: purchased Eurofins DiscoverX KINOMEscan
Text: as §1

FER = biological target: T4, FER (Homo sapiens, UniProt P16591); assay: KINOMEscan 1 μM, FER; assay type: binding; details: 1000 nM; Entrez FER; read-out: Percent Control
T4 construct: purchased Eurofins DiscoverX KINOMEscan
Text: as §1

ROS1 = biological target: T5, ROS1 (Homo sapiens, UniProt P08922); assay: KINOMEscan 1 μM, ROS1; assay type: binding; details: 1000 nM; Entrez ROS1; read-out: Percent Control
T5 construct: purchased Eurofins DiscoverX KINOMEscan
Text: as §1

INSRR = biological target: T6, INSRR (Homo sapiens, UniProt P14616); assay: KINOMEscan 1 μM, INSRR; assay type: binding; details: 1000 nM; Entrez INSRR; read-out: Percent Control
T6 construct: purchased Eurofins DiscoverX KINOMEscan
Text: as §1

MAP3K3 = biological target: T7, MAP3K3 (Homo sapiens, UniProt Q99759); assay: KINOMEscan 1 μM, MAP3K3; assay type: binding; details: 1000 nM; Entrez MAP3K3; read-out: Percent Control
T7 construct: purchased Eurofins DiscoverX KINOMEscan
Text: as §1

CAMK1D = biological target: T8, CAMK1D (Homo sapiens, UniProt Q8IU85); assay: KINOMEscan 1 μM, CAMK1D; assay type: binding; details: 1000 nM; Entrez CAMK1D; read-out: Percent Control
T8 construct: purchased Eurofins DiscoverX KINOMEscan
Text: as §1

SRC = biological target: T9, SRC (Homo sapiens, UniProt P12931); assay: KINOMEscan 1 μM, SRC; assay type: binding; details: 1000 nM; Entrez SRC; read-out: Percent Control
T9 construct: purchased Eurofins DiscoverX KINOMEscan
Text: as §1

CIT = biological target: T10, CIT (Homo sapiens, UniProt O14578); assay: KINOMEscan 1 μM, CIT; assay type: binding; details: 1000 nM; Entrez CIT; read-out: Percent Control
T10 construct: purchased Eurofins DiscoverX KINOMEscan
Text: as §1

DAPK3 = biological target: T11, DAPK3 (Homo sapiens, UniProt O43293); assay: KINOMEscan 1 μM, DAPK3; assay type: binding; details: 1000 nM; Entrez DAPK3; read-out: Percent Control
T11 construct: purchased Eurofins DiscoverX KINOMEscan
Text: as §1

ERK4 = biological target: T12, ERK4 (Homo sapiens, UniProt P31152); assay: KINOMEscan 1 μM, ERK4; assay type: binding; details: 1000 nM; Entrez MAPK4; read-out: Percent Control
T12 construct: purchased Eurofins DiscoverX KINOMEscan
T12 sequence (P31152 whole entry): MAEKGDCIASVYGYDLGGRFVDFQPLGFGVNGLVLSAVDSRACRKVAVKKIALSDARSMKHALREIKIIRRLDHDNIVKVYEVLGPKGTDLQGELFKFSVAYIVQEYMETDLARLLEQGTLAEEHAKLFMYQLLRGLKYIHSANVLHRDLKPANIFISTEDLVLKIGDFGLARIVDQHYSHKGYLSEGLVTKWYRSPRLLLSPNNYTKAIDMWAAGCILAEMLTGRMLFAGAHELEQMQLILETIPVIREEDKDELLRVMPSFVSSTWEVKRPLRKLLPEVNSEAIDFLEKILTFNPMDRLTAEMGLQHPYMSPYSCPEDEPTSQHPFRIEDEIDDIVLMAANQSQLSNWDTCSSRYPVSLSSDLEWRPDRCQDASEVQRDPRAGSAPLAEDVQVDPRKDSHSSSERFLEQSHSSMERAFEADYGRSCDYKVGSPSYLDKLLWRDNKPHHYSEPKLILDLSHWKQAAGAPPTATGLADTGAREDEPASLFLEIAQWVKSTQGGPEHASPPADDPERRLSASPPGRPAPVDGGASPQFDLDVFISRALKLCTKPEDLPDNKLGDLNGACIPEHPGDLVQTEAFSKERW
Text: as §1

GRK3 = biological target: T13, GRK3 (Homo sapiens, UniProt P35626); assay: KINOMEscan 1 μM, GRK3; assay type: binding; details: 1000 nM; Entrez ADRBK2; read-out: Percent Control
T13 construct: purchased Eurofins DiscoverX KINOMEscan
Text: as §1

IGF1R = biological target: T14, IGF1R (Homo sapiens, UniProt P08069); assay: KINOMEscan 1 μM, IGF1R; assay type: binding; details: 1000 nM; Entrez IGF1R; read-out: Percent Control
T14 construct: purchased Eurofins DiscoverX KINOMEscan
T14 sequence (P08069 31-1367): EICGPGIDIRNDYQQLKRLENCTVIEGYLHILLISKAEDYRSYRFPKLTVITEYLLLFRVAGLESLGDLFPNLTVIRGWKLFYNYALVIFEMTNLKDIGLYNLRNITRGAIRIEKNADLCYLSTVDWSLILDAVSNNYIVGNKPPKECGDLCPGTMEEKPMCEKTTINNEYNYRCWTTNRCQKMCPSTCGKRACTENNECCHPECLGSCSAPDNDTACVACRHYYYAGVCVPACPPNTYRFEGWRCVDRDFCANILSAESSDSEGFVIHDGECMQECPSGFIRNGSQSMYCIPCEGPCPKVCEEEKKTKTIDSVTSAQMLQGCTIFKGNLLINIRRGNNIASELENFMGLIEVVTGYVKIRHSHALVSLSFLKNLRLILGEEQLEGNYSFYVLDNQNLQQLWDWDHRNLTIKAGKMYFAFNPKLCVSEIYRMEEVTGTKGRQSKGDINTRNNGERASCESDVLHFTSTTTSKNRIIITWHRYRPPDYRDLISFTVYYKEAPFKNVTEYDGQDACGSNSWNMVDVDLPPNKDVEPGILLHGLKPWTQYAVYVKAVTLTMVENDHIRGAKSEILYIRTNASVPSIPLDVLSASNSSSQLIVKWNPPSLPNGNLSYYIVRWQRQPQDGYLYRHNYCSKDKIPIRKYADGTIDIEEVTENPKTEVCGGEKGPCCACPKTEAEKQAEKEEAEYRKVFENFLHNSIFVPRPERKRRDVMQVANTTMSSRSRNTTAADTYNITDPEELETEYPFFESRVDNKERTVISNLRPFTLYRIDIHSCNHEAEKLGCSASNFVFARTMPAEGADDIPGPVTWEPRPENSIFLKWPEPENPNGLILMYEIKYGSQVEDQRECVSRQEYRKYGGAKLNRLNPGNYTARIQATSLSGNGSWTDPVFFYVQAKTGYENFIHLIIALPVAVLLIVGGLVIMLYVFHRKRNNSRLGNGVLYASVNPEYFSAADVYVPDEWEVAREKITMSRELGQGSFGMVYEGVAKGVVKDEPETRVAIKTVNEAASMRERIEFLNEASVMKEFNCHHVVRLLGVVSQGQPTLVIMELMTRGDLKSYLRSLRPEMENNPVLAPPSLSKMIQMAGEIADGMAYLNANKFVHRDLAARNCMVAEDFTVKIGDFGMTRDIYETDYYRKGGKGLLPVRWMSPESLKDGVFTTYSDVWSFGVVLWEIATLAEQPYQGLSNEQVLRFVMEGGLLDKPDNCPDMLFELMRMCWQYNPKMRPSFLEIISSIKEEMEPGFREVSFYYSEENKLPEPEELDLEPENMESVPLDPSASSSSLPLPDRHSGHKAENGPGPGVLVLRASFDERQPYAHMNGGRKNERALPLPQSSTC
Text: as §1

KIT(L576P) = biological target: T15, KIT(L576P) (Homo sapiens, UniProt P10721, L576P); assay: KINOMEscan 1 μM, KIT(L576P); assay type: binding; details: 1000 nM; Entrez KIT; read-out: Percent Control
T15 construct: purchased Eurofins DiscoverX KINOMEscan
Text: as §1

[2] = biological target: T16, TYK2(JH1domain-catalytic) (Homo sapiens, UniProt P29597); assay: DiscoverX KINOMEscan binding assay at 1 μM, TYK2(JH1domain-catalytic); details: Compound Concentration 1000 nM, read-out: Percent Control
T16 construct: TYK2(JH1domain-catalytic); purchased Eurofins DiscoverX KINOMEscan
Text: as §1

PIK3CA(E545A) = biological target: T17, PIK3CA(E545A) (Homo sapiens, UniProt P42336, E545A); assay: KINOMEscan at 1 μM, PIK3CA(E545A); assay type: binding; details: 1000 nM, read-out: Percent Control
T17 construct: purchased Eurofins DiscoverX KINOMEscan
Text: (§2) Supplement cells-12-00287-s001.zip/File S2. KinomeScan data for the CAMKK2 probe and negative control.xlsx, sheet "SGC-CAMKK2-1N" | column: Percent Control

NEK4 = biological target: T18, NEK4 (Homo sapiens, UniProt P51957); assay: KINOMEscan at 1 μM, NEK4; assay type: binding; details: 1000 nM, read-out: Percent Control
T18 construct: purchased Eurofins DiscoverX KINOMEscan
T18 sequence (P51957 whole entry): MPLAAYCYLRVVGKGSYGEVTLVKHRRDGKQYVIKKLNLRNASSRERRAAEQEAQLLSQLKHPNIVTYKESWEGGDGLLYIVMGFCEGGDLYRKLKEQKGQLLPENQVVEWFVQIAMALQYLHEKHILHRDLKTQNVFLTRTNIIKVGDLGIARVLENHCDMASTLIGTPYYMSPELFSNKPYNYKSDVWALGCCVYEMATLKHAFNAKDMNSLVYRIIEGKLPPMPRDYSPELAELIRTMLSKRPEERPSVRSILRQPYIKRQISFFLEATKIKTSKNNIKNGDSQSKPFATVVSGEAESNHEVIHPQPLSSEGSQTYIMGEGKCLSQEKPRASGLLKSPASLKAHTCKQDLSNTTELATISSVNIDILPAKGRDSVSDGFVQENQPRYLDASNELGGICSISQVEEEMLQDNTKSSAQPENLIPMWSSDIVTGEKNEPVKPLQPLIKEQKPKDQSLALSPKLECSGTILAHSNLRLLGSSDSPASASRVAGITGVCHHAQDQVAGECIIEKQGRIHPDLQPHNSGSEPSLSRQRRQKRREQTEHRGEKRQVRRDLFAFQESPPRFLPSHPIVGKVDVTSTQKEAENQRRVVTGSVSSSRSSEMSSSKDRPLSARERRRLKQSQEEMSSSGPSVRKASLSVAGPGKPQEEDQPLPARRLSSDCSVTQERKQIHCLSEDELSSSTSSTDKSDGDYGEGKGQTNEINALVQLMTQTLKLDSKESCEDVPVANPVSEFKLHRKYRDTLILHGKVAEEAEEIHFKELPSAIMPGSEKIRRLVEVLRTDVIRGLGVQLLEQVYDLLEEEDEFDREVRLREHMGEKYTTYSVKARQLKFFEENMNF
Text: as §2

MEK5 = biological target: T19, MEK5 (Homo sapiens, UniProt Q13163); assay: KINOMEscan at 1 μM, MEK5; assay type: binding; details: 1000 nM, read-out: Percent Control
T19 construct: purchased Eurofins DiscoverX KINOMEscan
T19 sequence (Q13163 whole entry): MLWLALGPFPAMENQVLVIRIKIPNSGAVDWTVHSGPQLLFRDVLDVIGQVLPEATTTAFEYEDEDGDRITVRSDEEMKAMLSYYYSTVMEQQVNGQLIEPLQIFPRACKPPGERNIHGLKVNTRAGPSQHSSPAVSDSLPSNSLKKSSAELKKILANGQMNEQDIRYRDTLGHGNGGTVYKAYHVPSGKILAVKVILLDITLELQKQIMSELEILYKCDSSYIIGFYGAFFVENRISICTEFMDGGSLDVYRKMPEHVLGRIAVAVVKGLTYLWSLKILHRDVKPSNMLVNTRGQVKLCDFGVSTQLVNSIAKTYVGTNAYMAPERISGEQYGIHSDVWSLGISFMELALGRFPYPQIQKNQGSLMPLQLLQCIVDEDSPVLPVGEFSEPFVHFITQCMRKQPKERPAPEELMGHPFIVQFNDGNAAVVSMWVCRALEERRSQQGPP
Text: as §2

RIPK4 = biological target: T20, RIPK4 (Homo sapiens, UniProt P57078); assay: KINOMEscan at 1 μM, RIPK4; assay type: binding; details: 1000 nM, read-out: Percent Control
T20 construct: purchased Eurofins DiscoverX KINOMEscan
Text: as §2

BMPR2 = biological target: T21, BMPR2 (Homo sapiens, UniProt Q13873); assay: KINOMEscan at 1 μM, BMPR2; assay type: binding; details: 1000 nM, read-out: Percent Control
T21 construct: purchased Eurofins DiscoverX KINOMEscan
Text: as §2

CDKL1 = biological target: T22, CDKL1 (Homo sapiens, UniProt Q00532); assay: KINOMEscan at 1 μM, CDKL1; assay type: binding; details: 1000 nM, read-out: Percent Control
T22 construct: purchased Eurofins DiscoverX KINOMEscan
Text: as §2

[3] = biological target: T23, TYK2(JH2domain-pseudokinase) (Homo sapiens, UniProt P29597); assay: KINOMEscan at 1 μM, TYK2(JH2domain-pseudokinase); assay type: binding; details: 1000 nM, read-out: Percent Control
T23 construct: TYK2(JH2domain-pseudokinase); purchased Eurofins DiscoverX KINOMEscan
T23 sequence (P29597 556-888 limits assumed): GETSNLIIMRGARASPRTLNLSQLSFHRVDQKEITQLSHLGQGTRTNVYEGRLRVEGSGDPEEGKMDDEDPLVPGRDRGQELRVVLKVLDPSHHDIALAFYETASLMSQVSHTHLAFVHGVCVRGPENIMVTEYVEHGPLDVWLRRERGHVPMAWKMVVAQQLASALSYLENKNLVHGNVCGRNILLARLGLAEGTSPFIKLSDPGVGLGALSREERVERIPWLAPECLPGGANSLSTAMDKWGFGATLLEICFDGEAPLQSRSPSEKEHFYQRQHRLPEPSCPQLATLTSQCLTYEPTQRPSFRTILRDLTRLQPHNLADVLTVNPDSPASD
Text: as §2

PRKCH = biological target: T24, PRKCH (Homo sapiens, UniProt P24723); assay: KINOMEscan at 1 μM, PRKCH; assay type: binding; details: 1000 nM, read-out: Percent Control
T24 construct: purchased Eurofins DiscoverX KINOMEscan
Text: as §2

WNK3 = biological target: T25, WNK3 (Homo sapiens, UniProt Q9BYP7); assay: KINOMEscan at 1 μM, WNK3; assay type: binding; details: 1000 nM, read-out: Percent Control
T25 construct: purchased Eurofins DiscoverX KINOMEscan
Text: as §2

CSNK1A1L = biological target: T26, CSNK1A1L (Homo sapiens, UniProt Q8N752); assay: KINOMEscan at 1 μM, CSNK1A1L; assay type: binding; details: 1000 nM, read-out: Percent Control
T26 construct: purchased Eurofins DiscoverX KINOMEscan
T26 sequence (Q8N752 whole entry): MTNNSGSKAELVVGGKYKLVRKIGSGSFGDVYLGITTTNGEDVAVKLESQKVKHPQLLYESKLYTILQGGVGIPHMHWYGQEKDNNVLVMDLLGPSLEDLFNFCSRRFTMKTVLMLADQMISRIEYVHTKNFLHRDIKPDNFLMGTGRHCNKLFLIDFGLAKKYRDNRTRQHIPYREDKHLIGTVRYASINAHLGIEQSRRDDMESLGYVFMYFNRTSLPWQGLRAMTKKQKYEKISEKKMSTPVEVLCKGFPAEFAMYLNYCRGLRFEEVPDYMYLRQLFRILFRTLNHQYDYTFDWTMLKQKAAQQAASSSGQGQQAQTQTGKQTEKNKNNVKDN
Text: as §2

CDK3 [4] = biological target: T2, CDK3; assay: KINOMEscan at 1 μM, CDK3; assay type: binding; details: 1000 nM, read-out: Percent Control
Text: as §2

DMPK2 = biological target: T27, DMPK2 (Homo sapiens, UniProt Q6DT37); assay: KINOMEscan at 1 μM, DMPK2; assay type: binding; details: 1000 nM, read-out: Percent Control
T27 construct: purchased Eurofins DiscoverX KINOMEscan
Text: as §2

FLT3(D835Y) = biological target: T28, FLT3(D835Y) (Homo sapiens, UniProt P36888, D835Y); assay: KINOMEscan binding assay at 1 μM, FLT3(D835Y); details: Compound Concentration 1000 nM; read-out: Percent Control
T28 construct: purchased Eurofins DiscoverX KINOMEscan
Text: as §2

MST1 = biological target: T29, MST1 (Homo sapiens, UniProt Q13043); assay: KINOMEscan binding assay at 1 μM, MST1; details: Compound Concentration 1000 nM; read-out: Percent Control
T29 construct: purchased Eurofins DiscoverX KINOMEscan
Text: as §2

PFCDPK1(P.falciparum) = biological target: T30, PFCDPK1(P.falciparum) (Plasmodium falciparum, UniProt P62344); assay: KINOMEscan binding assay at 1 μM, PFCDPK1(P.falciparum); details: Compound Concentration 1000 nM; read-out: Percent Control
T30 construct: purchased Eurofins DiscoverX KINOMEscan
T30 sequence (P62344 whole entry): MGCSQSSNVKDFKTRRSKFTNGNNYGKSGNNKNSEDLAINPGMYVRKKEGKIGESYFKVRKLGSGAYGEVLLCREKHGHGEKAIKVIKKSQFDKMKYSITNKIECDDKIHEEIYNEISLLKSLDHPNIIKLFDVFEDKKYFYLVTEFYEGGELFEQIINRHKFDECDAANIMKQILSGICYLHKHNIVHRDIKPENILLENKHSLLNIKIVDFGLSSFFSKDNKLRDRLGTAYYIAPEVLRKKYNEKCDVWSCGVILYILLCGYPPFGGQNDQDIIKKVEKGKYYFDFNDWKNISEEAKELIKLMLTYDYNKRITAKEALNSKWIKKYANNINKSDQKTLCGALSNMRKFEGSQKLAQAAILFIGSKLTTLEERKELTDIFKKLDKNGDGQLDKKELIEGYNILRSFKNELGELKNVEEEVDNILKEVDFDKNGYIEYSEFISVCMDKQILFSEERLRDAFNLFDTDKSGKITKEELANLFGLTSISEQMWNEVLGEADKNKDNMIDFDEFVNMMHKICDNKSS
Text: as §2

PIP5K1C = biological target: T31, PIP5K1C (Homo sapiens, UniProt O60331); assay: KINOMEscan binding assay at 1 μM, PIP5K1C; details: Compound Concentration 1000 nM; read-out: Percent Control
T31 construct: purchased Eurofins DiscoverX KINOMEscan
Text: as §2

SYK = biological target: T32, SYK (Homo sapiens, UniProt P43405); assay: KINOMEscan binding assay at 1 μM, SYK; details: Compound Concentration 1000 nM; read-out: Percent Control
T32 construct: purchased Eurofins DiscoverX KINOMEscan
Text: as §2

`Cc1cccc(-c2cnc3occ(-c4ccc(C(=O)O)c(C5CCCC5)c4)c3c2)c1` [SGC-CAMKK2-1 (YL-36)] gave a remaining binding at 1 µM (EGFR(G719C)) of 55%, a remaining binding at 1 µM (CDK3 [1]) of 59% and a remaining binding at 1 µM (ULK1) of 62%. The remaining binding at 1 µM (FER) was 77%, the remaining binding at 1 µM (ROS1) was 84% and the remaining binding at 1 µM (INSRR) was 88%. It also gave a remaining binding at 1 µM (MAP3K3) of 88%, a remaining binding at 1 µM (CAMK1D) of 94% and a remaining binding at 1 µM (SRC) of 96%. It also gave a remaining binding at 1 µM (CIT) of 100%, a remaining binding at 1 µM (DAPK3) of 100% and a remaining binding at 1 µM (ERK4) of 100%. For the same compound, the remaining binding at 1 µM (GRK3) was 100%, the remaining binding at 1 µM (IGF1R) was 100% and the remaining binding at 1 µM (KIT(L576P)) was 100%. The remaining binding at 1 µM [2] was 100%.

Work on `O=C(O)c1ccc(-c2coc3ncc(-c4ccccc4)cc23)cc1Cl` [SGC-CAMKK2-1N (UNC-YL-83)] yielded a remaining binding at 1 µM (PIK3CA(E545A)) of 59%, a remaining binding at 1 µM (NEK4) of 66% and a remaining binding at 1 µM (MEK5) of 67%. The remaining binding at 1 µM (RIPK4) was 70%, the remaining binding at 1 µM (BMPR2) was 71% and the remaining binding at 1 µM (CDKL1) was 72%. The remaining binding at 1 µM [3] was 83%, the remaining binding at 1 µM (PRKCH) was 94% and the remaining binding at 1 µM (WNK3) was 95%. For the same compound, the remaining binding at 1 µM (CSNK1A1L) was 99%, the remaining binding at 1 µM (CDK3 [4]) was 100% and the remaining binding at 1 µM (DMPK2) was 100%. It also gave a remaining binding at 1 µM (FLT3(D835Y)) of 100%, a remaining binding at 1 µM (MST1) of 100% and a remaining binding at 1 µM (PFCDPK1(P.falciparum)) of 100%. For the same compound, the remaining binding at 1 µM (PIP5K1C) was 100% and the remaining binding at 1 µM (SYK) was 100%.
